Columns and labels:
Assay in all cases: relative viability (nuclei count vs DMSO), 5 days (fraction); higher = more cells survive
NCI-H661 = system: NCI-H661
Outline: (§1)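 Values are medians from duplicate plates. Each reflects relative viability, defined as the nuclei count of treated wells over that of vehicle wells. Lung cancer cell lines in 1536-well plates were pin-tool dosed one day after seeding with one drug alone or with a fixed anchor-drug dose plus five library-drug doses (not always all listed) in √10 steps, then fixed, stained and imaged at 4× after 5 days.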

NCI-H1651 = system: NCI-H1651
Outline: as §1

SK-MES-1 = system: SK-MES-1
Outline: as §1

LXF-289 = system: LXF-289
Outline: as §1

CAL-12T = system: CAL-12T
Outline: as §1

SK-LU-1 = system: SK-LU-1
Outline: as §1

LC-2-ad = system: LC-2-ad
Outline: as §1

H3255 = system: H3255
Outline: as §1

PC-3 [JPC-3] = system: PC-3 [JPC-3]
Outline: as §1

NCI-H1915 = system: NCI-H1915
Outline: as §1

NCI-H2085 = system: NCI-H2085
Outline: as §1

EKVX = system: EKVX
Outline: as §1

EMC-BAC-2 = system: EMC-BAC-2
Outline: as §1

NCI-H2228 = system: NCI-H2228
Outline: as §1

NCI-H1395 = system: NCI-H1395
Outline: as §1

NCI-H2347 = system: NCI-H2347
Outline: as §1

COR-L 105 = system: COR-L 105
Outline: as §1

NCI-H1793 = system: NCI-H1793
Outline: as §1

LK-2 = system: LK-2
Outline: as §1

NCI-H1755 = system: NCI-H1755
Outline: as §1

NCI-H1944 = system: NCI-H1944
Outline: as §1

NCI-H2087 = system: NCI-H2087
Outline: as §1

NCI-H1437 = system: NCI-H1437
Outline: as §1

CCCCCCCCCCCC1=C(O)C(=O)C=C(O)C1=O [Embelin] + Cc1nc(NC(=O)N2CCC[C@H]2C(N)=O)sc1-c1ccnc(C(C)(C)C(F)(F)F)c1 [Alpelisib] (partner 2 µM)
relative viability (NCI-H661; first compound 0.08 µM): 0.612 | relative viability (NCI-H661; first compound 0.8 µM): 0.97 | relative viability (NCI-H661; first compound 2.53 µM): 0.92 | relative viability (NCI-H661; first compound 8 µM): 0.756 | relative viability (NCI-H1651; first compound 0.08 µM): 0.939 | relative viability (NCI-H1651; first compound 0.8 µM): 0.971 | relative viability (NCI-H1651; first compound 2.53 µM): 0.945 | relative viability (NCI-H1651; first compound 8 µM): 0.873 | relative viability (SK-MES-1; first compound 0.08 µM): 0.902 | relative viability (SK-MES-1; first compound 0.8 µM): 1.15 | relative viability (SK-MES-1; first compound 2.53 µM): 0.96 | relative viability (SK-MES-1; first compound 8 µM): 0.876 | relative viability (LXF-289; first compound 0.08 µM): 1.03 | relative viability (LXF-289; first compound 0.8 µM): 1.07 | relative viability (LXF-289; first compound 2.53 µM): 1.08 | relative viability (LXF-289; first compound 8 µM): 1.13 | relative viability (CAL-12T; first compound 0.08 µM): 1.24 | relative viability (CAL-12T; first compound 0.8 µM): 1.49 | relative viability (CAL-12T; first compound 2.53 µM): 1.31 | relative viability (CAL-12T; first compound 8 µM): 1.33 | relative viability (SK-LU-1; first compound 0.08 µM): 1.29 | relative viability (SK-LU-1; first compound 0.8 µM): 1.31 | relative viability (SK-LU-1; first compound 2.53 µM): 1.37 | relative viability (SK-LU-1; first compound 8 µM): 0.904 | relative viability (LC-2-ad; first compound 0.08 µM): 0.891 | relative viability (LC-2-ad; first compound 0.8 µM): 0.913 | relative viability (LC-2-ad; first compound 2.53 µM): 0.716 | relative viability (LC-2-ad; first compound 8 µM): 0.892 | relative viability (H3255; first compound 0.08 µM): 0.935 | relative viability (H3255; first compound 0.8 µM): 0.804 | relative viability (H3255; first compound 2.53 µM): 0.766 | relative viability (H3255; first compound 8 µM): 0.653 | relative viability (PC-3 [JPC-3]; first compound 0.08 µM): 1.03 | relative viability (PC-3 [JPC-3]; first compound 0.8 µM): 0.988 | relative viability (PC-3 [JPC-3]; first compound 2.53 µM): 1.08 | relative viability (PC-3 [JPC-3]; first compound 8 µM): 1.05 | relative viability (NCI-H1915; first compound 0.08 µM): 1.12 | relative viability (NCI-H1915; first compound 0.8 µM): 1.15 | relative viability (NCI-H1915; first compound 2.53 µM): 1.11 | relative viability (NCI-H1915; first compound 8 µM): 1.08 | relative viability (NCI-H2085; first compound 0.08 µM): 0.944 | relative viability (NCI-H2085; first compound 0.8 µM): 0.999 | relative viability (NCI-H2085; first compound 2.53 µM): 1.11 | relative viability (NCI-H2085; first compound 8 µM): 0.999 | relative viability (EKVX; first compound 0.08 µM): 0.849 | relative viability (EKVX; first compound 0.8 µM): 0.914 | relative viability (EKVX; first compound 2.53 µM): 0.999 | relative viability (EKVX; first compound 8 µM): 0.823 | relative viability (EMC-BAC-2; first compound 0.08 µM): 0.75 | relative viability (EMC-BAC-2; first compound 0.8 µM): 0.736 | relative viability (EMC-BAC-2; first compound 2.53 µM): 0.792 | relative viability (EMC-BAC-2; first compound 8 µM): 0.825 | relative viability (NCI-H2228; first compound 0.08 µM): 0.705 | relative viability (NCI-H2228; first compound 0.8 µM): 0.781 | relative viability (NCI-H2228; first compound 2.53 µM): 0.793 | relative viability (NCI-H2228; first compound 8 µM): 0.729 | relative viability (NCI-H1395; first compound 0.08 µM): 1.06 | relative viability (NCI-H1395; first compound 0.8 µM): 1.24 | relative viability (NCI-H1395; first compound 2.53 µM): 0.982 | relative viability (NCI-H1395; first compound 8 µM): 1.1 | relative viability (NCI-H2347; first compound 0.08 µM): 1.05 | relative viability (NCI-H2347; first compound 0.8 µM): 1.16 | relative viability (NCI-H2347; first compound 2.53 µM): 1.11 | relative viability (NCI-H2347; first compound 8 µM): 1.16 | relative viability (COR-L 105; first compound 0.08 µM): 0.951 | relative viability (COR-L 105; first compound 0.8 µM): 1.15 | relative viability (COR-L 105; first compound 2.53 µM): 0.968 | relative viability (COR-L 105; first compound 8 µM): 1.31 | relative viability (NCI-H1793; first compound 0.08 µM): 0.752 | relative viability (NCI-H1793; first compound 0.8 µM): 0.972 | relative viability (NCI-H1793; first compound 2.53 µM): 0.794 | relative viability (NCI-H1793; first compound 8 µM): 0.728 | relative viability (LK-2; first compound 0.08 µM): 1.09 | relative viability (LK-2; first compound 0.8 µM): 1.5 | relative viability (LK-2; first compound 2.53 µM): 1.09 | relative viability (LK-2; first compound 8 µM): 0.99 | relative viability (NCI-H1755; first compound 0.08 µM): 0.906 | relative viability (NCI-H1755; first compound 0.8 µM): 0.966 | relative viability (NCI-H1755; first compound 2.53 µM): 0.994 | relative viability (NCI-H1755; first compound 8 µM): 0.934 | relative viability (NCI-H1944; first compound 0.08 µM): 0.818 | relative viability (NCI-H1944; first compound 0.8 µM): 0.925 | relative viability (NCI-H1944; first compound 2.53 µM): 0.875 | relative viability (NCI-H1944; first compound 8 µM): 0.828 | relative viability (NCI-H2087; first compound 0.08 µM): 0.988 | relative viability (NCI-H2087; first compound 0.8 µM): 1.13 | relative viability (NCI-H2087; first compound 2.53 µM): 1.03 | relative viability (NCI-H2087; first compound 8 µM): 1.08 | relative viability (NCI-H1437; first compound 0.08 µM): 0.916 | relative viability (NCI-H1437; first compound 0.8 µM): 1.05 | relative viability (NCI-H1437; first compound 2.53 µM): 1.32 | relative viability (NCI-H1437; first compound 8 µM): 0.697

— the supplement of paper PMC10307832
